# Key:
# [1] = Sprague-Dawley, rat, in vivo, 4 weeks
# [2] = test system: CD11b+/F4/80+ intratumoral macrophages; test: Syngeneic MC38 mouse model of colorectal cancer, tumor-associated macrophages by flow cytometry, 7 days of treatment; format: in vivo; details: MC38 mice, seven days
# Protocol: The protocol and procedures involving the care and use of animals in the syngeneic MC38 mouse xenograft models below were reviewed and approved by the Institutional Animal Care and Use Committee (IACUC) of CrownBio (Taicang Jiangsu Province, China) prior to conduct. During the study, the care and use of animals was conducted in accordance with the regulations of the Association for Assessment and Accreditation of Laboratory Animal Care (AAALAC). All mice had food and water ad libitum. […] In the first experiment, six- to eight-week old female C57BL/6 mice were inoculated subcutaneously in the right lower flank with one million MC38 tumor cells in Phosphate Buffered Saline. […] Tumor volume and body weight were measured thrice weekly. Tumor burden (mg) was estimated from caliper measurements by the formula: tumor burden (mg=mm^3)=(length×width^2)/2. Tumors were collected at 2 hours post the 7th dose on day 18 and freshly processed to assess infiltrating tumor-associated macrophages by flow cytometry using antibodies to CD11b+, F4/80, and CD45+. First, tumors were washed in phosphate-buffered saline and treated with collagenase and DNase. After treatment, cells were repeatedly passed through a 70 μm cell strainer. Cells were further washed, resuspended in red blood cell lysing buffer, then washed again. […]
# [3] = biological target: unphosphorylated c-KIT kinase (Homo sapiens (Human), UniProt P10721); test: c-KIT kinase assay, coupled pyruvate kinase/lactate dehydrogenase; format: biochemical; details: enzymatic assay, 1 mM ATP
# CSF1 = test: Plasma CSF1 levels in patients, ELISA; format: in vivo, human; details: average at C2D1 vs C1D1
# Protocol: (§1) PK analysis was conducted on all 38 patients. Serial blood samples were collected for PK and took place on either Day −7, Cycle 1, Day 1 (C1D1) and C2D1 at pre-dose, 0.5, 1, 2, 4, 6, 8, 10-12, and 24 hr time points or Day −7, C1D1, C1D8, and C2D1 at pre-dose, 1, 2, 4, 6, and 8 hr time points, or C1D1, C1D8, and C2D1 at pre-dose, 1, 2, 4, 6, and 8 hr time points. High fat meal was given prior to dosing of Compound 1 on Day −7. PD effects were measured by two methodologies: 1) depletion of CSF1R-expressing monocytes in peripheral blood (Cohorts 1-7) from C1D1, C1D15 and C2D1; and 2) increase of plasma levels of CSF1 and IL-34, the ligands for CSF1R (Cohorts 1-7) on C1D1, C1D15, and C2D1. For the CD16^+ monocyte assay, whole blood collected in an EDTA vacutainer was aliquoted into tubes and incubated with fluorescently-labeled antibodies (CD14-Alexa488 (BD Pharmingen); CD16-PE-Cy7 (BD Pharmingen); and TIE2-APC (R&D Systems). After incubation, red blood cells were lysed, and the remaining cells were washed several times before being analyzed on a flow cytometer. For the plasma CSF1 assay or IL-34, whole blood collected in an EDTA vacutainer was centrifuged, and the plasma was collected and frozen. Plasma levels of CSF1 or IL-34 were measured using a commercial ELISA kit (R&D Systems).
# [4] = human, in vivo
# [5] = dog
# in vivo [6] = details: beagle, dog
# [7] = test system: diffuse-type tenosynovial giant cell tumor; test: Tumor response and symptoms in DTGCT patients (case studies), RECIST version 1.1; format: in vivo, human
# Excerpt: Tumor response will be assessed by tumor type using the following criteria: for solid tumors and DTGCT: RECIST, Version 1.1; and for bone-only disease: a new lesion(s) identified by bone scan will be considered as disease progression.
# Additional descriptions of case studies of patients with DTGCT treated within this study are provided below: […]
# [8] = dog, 13-week
# CD16+ monocytes = test: Depletion of CSF1R-expressing (CD16+) monocytes in peripheral blood of patients, flow cytometry; format: in vivo, human; details: C2D1 compared to C1D1
# Protocol: as §1
# in vivo [9] = details: Sprague-Dawley, rat
# Sequence of unphosphorylated c-KIT kinase (P10721 other isoform, or with tags, fused parts or gaps): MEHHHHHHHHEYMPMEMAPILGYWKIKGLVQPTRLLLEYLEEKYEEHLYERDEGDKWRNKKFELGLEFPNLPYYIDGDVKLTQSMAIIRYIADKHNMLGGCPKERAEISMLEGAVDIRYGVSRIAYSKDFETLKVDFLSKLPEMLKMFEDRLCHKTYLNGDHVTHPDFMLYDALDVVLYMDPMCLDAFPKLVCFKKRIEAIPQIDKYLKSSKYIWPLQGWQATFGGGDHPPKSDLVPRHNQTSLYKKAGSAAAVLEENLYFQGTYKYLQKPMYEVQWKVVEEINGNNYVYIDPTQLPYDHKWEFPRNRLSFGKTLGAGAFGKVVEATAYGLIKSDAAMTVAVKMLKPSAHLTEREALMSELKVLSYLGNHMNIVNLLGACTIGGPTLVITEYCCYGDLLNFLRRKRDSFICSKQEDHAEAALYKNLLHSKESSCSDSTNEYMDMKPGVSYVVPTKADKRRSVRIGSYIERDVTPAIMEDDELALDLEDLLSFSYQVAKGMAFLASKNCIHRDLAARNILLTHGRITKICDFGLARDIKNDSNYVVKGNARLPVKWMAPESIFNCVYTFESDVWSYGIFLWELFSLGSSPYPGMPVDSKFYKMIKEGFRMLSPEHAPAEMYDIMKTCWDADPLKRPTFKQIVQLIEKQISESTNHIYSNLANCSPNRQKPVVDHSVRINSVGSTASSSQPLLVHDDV
smiles,measurement,setting,value
"Cc1nc(-c2cnc(NC(C)C)n(C)c2=O)ccc1Oc1ccnc(-c2cnn(C)c2)c1 [Compound 1, 2-(isopropylamino)-3-methyl-5-(6-methyl-5-((2-(1-methyl-1H-pyrazol-4-yl)pyridin-4-yl)oxy)pyridin-2-yl)pyrimidin-4(3H)-one]",STD10 (Severely Toxic Dose in 10% of animals),[1],15 mg/kg/day
same,reduction in CD11b+/F4/80+ intratumoral macrophages (as a percent of CD45+ cells in the tumor),"[2]; 5, 10, 15 mg/kg QD oral",dose-dependent reduction
same,reduction of intratumoral macrophages (as a percent of CD45+ cells in the tumor),[2]; high dose (15 mg/kg QD oral),~67%
same,IC50,[3],864 nM
same,increase in plasma CSF1,CSF1; Cohort 1,6 fold
same,increase in plasma CSF1,CSF1; Cohort 2,1.5 fold
same,increase in plasma CSF1,CSF1; Cohort 3,2.9 fold
same,increase in plasma CSF1,CSF1; Cohort 4,3.2 fold
same,increase in plasma CSF1,CSF1; Cohort 5,43 fold
same,"Grade 3/4 elevated AST/ALT events, elevated bilirubin levels or hepatic AEs",[4],did not exhibit
same,NOAEL at 4 weeks,"[5]; beagle, in vivo",7.5 mg/kg/day
same,hepatocellular injury in microscopic histology exams,[5]; 4-week,not evident
same,AST activity,"[5]; 4-week, ≥2.5 mg/kg/day",minimally to mildly increased
same,ALT and GLDH activity,"[5]; 4-week, ≥7.5 mg/kg/day",minimally increased
same,NOAEL at 13 weeks,in vivo [6],8 mg/kg/day
same,symptoms,"[7]; DTGCT Patient 1, Cohort 5",Improved pain and swelling and effusion were nearly resolved in the first cycle
same,decrease in tumor size from baseline,"[7]; DTGCT Patient 1, Cohort 5 (30 mg twice weekly maintenance), C3D1",48%
same,decrease in tumor size from baseline,"[7]; DTGCT Patient 1, Cohort 5, C5D1",61%
same,decrease in tumor size from baseline,"[7]; DTGCT Patient 1, Cohort 5, C7D1",75%
same,decrease in tumor size from baseline,"[7]; DTGCT Patient 1, Cohort 5, C10D1",84%
same,symptoms,"[7]; DTGCT Patient 2, Cohort 5","pain improvement, increased range of motion, and less stiffness"
same,decrease in tumor size from baseline,"[7]; DTGCT Patient 2, Cohort 5, C3D1",25%
same,symptoms,"[7]; DTGCT Patient 3, Cohort 5","rapid symptom improvement, with less pain and swelling and improved range of motion after the first cycle"
same,decrease in tumor size from baseline,"[7]; DTGCT Patient 3, Cohort 5, C3D1",24%
same,tumor response,[7]; DTGCT patient,up to 84%
same,microscopic liver changes,[8],without corresponding microscopic liver changes
same,"increases in AST, GLDH and creatine kinase activities",[8]; 8 mg/kg/day,minimal or mild
same,decrease in levels of CSF1R-expressing monocytes,CD16+ monocytes; Cohort 2,~48%
same,decrease in levels of CSF1R-expressing monocytes,CD16+ monocytes; Cohort 3,~54%
same,decrease in levels of CSF1R-expressing monocytes,CD16+ monocytes; Cohort 4,~79%
same,decrease in levels of CSF1R-expressing monocytes,CD16+ monocytes; Cohort 5,~98%
same,NOAEL at 13 weeks,in vivo [9],1.88 mg/kg/day

# From patent US11679110B2, “Methods of treating disorders using CSF1R inhibitors” (Deciphera Pharmaceuticals, LLC, priority 2018, dated 2023)
